Assay results reported in patent US20240307419A1, “CONFORMATIONALLY-CONSTRAINED INHIBITORS OF 3C OR 3C-LIKE PROTEASES” (priority 2021, published 2024).
Read-outs that look alike come from different tables or passages of the source.

Legend:
[1] = molecular target: MERS-CoV 3CLpro (Middle East respiratory syndrome-related coronavirus (isolate United Kingdom/H123990006/2012) (MERS-CoV) (Betacoronavirus England 1), UniProt K9N7C7); format: biochemical
[2] = test system: Huh-7, CRFK, or CCL1 cells
[3] = test system: SARS-CoV-2
[4] = molecular target: SARS-CoV-2 3CLpro (Severe acute respiratory syndrome coronavirus 2 (2019-nCoV) (SARS-CoV-2), UniProt P0DTD1); test: biochemical; format: biochemical
[5] = test system: SARS-CoV-2; test: microbe, parasite or virus in culture; conditions: Severe acute respiratory syndrome coronavirus 2, Vero C1008, read-out: EC50 against SARS-CoV-2 in Vero E6 cells
[6] = test system: SARS-CoV-2; test: in vitro; conditions: African green monkey
[7] = test system: SARS-CoV-2 replicon; test: microbe, parasite or virus in culture; format: cell-based; conditions: read-out: EC50, SARS-CoV-2 replicon assay
[8] = test system: CRFK cells; conditions: cat
[9] = test system: SARS-CoV-2 replicon; conditions: 293T cells, previously reported; read-out: EC50 previously reported with the same system; cited from earlier work
[10] = test system: feline infectious peritonitis virus (FIPV); conditions: cell culture and naturally infected animals with long term treatment; previously reported; cited from earlier work
[11] = Severe acute respiratory syndrome coronavirus 2, HEK-293T, 30 h

Sequence of MERS-CoV 3CLpro (K9N7C7 3248-3553 limits assumed): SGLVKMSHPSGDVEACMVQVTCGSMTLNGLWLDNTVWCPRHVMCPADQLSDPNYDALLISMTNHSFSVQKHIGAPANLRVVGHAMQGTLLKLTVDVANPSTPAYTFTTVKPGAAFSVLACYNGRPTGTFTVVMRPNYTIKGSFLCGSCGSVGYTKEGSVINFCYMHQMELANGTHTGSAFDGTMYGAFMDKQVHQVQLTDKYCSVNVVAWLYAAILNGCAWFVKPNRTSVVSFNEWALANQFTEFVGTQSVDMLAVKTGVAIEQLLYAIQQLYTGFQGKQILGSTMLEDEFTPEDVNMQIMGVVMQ

## CC(C)C[C@H](NC(=O)OC[C@@H]1C[C@@H]2CCC[C@@H](C2)C1)C(=O)N[C@H](C=O)C[C@@H]1CCNC1=O [Compound 2a, ((1R,3s,5S)-Bicyclo[3.3.1]nonan-3-yl)methyl ((S)-4-methyl-1-oxo-1-(((S)-1-oxo-3-((S)-2-oxopyrrolidin-3-yl)propan-2-yl)amino)pentan-2-yl)carbamate]
[1]
  IC50: 52 ± 1 nM
[2]
  CC50: > 100000 nM
[3]
  EC50 lower than the corresponding IC50 values: ~4.6 fold
  selectivity indices: 2857
[3]; read-out: EC50 against SARS-CoV-2 in Vero E6 cells
  EC50: 35 nM
[4]; read-out: IC50
  IC50: 180 ± 30 nM

## CC(C)C[C@H](NC(=O)OCC1C[C@H]2CCC[C@@H](C1)C2)C(=O)N[C@@H](C[C@@H]1CCNC1=O)C(O)S(=O)(=O)[O-].[Na+] (stereo partly drawn) [Compound 3a, Sodium (2S)-2-((2S)-2-(((((1R,5S)-bicyclo[3.3.1]nonan-3-yl)methoxy)carbonyl)amino)-4-methylpentanamido)-1-hydroxy-3-((S)-2-oxopyrrolidin-3-yl)propane-1-sulfonate]
[1]
  IC50: 49 ± 2 nM
[2]
  CC50: > 100000 nM
[5]
  EC50: 32 nM
[3]
  EC50 lower than the corresponding IC50 values: ~4.6 fold
[4]; read-out: IC50
  IC50: 170 ± 20 nM
[6]
  selectivity ratio: 3120

## CC(C)C[C@H](NC(=O)OC1CC2(CCN(C(=O)OC(C)(C)C)CC2)C1)C(=O)N[C@H](C=O)C[C@H]1CCNC1=O [Compound 7b, Tert-butyl 2-((((S)-4-methyl-1-oxo-1-(((S)-1-oxo-3-((R)-2-oxopyrrolidin-3-yl)propan-2-yl)amino)pentan-2-yl)carbamoyl)oxy)-7-azaspiro[3.5]nonane-7-carboxylate]
[4]
  IC50 lower than that of compound 1b: > 9 fold
[7]; [11]
  EC50: 90 nM
[8]
  CC50: > 100000 nM

## CC(C)C[C@H](NC(=O)OCC1CN(C(=O)OC(C)(C)C)C1)C(=O)N[C@@H](C[C@H]1CCNC1=O)C(O)S(=O)(=O)O (stereo partly drawn) [Compound 14c, Sodium (2S)-2-((S)-2-((((1-(tert-butoxycarbonyl)azetidin-3-yl)methoxy)carbonyl)amino)-4-methylpentanamido)-1-hydroxy-3-((R)-2-oxopyrrolidin-3-yl)propane-1-sulfonate]
[4]
  IC50: 50 nM
[7]; [11]
  EC50: 430 nM
[8]
  CC50: > 100000 nM

## CC(C)C[C@H](NC(=O)OCc1ccccc1)C(=O)N[C@@H](CC1CCNC1=O)C(O)S(=O)(=O)O (stereo partly drawn) [GC376]
[9]
  EC50: 20 nM
[7]
  EC50: 37 ± 10 nM

## CC(C)C[C@H](NC(=O)OCc1ccccc1)C(=O)N[C@@H](C[C@@H]1CCNC1=O)C(O)S(=O)(=O)[O-].[Na+] (stereo partly drawn) [GC376]
[10]
  barrier to resistance to FIPV: high barrier to resistance
